In brackets after ≈: the same amount, converted by molar mass. Where two headings read alike, the source gives them in different places. Positions of bridges follow the written chain, without caps; N, C: chain ends. Non-standard residues stand in square brackets, D forms with d. Residues, ends and D or L forms follow the SMILES beside them. Phe(3-CF3) = N[C@@H](Cc1cccc(C(F)(F)F)c1)C(=O)O; Lys(N3) = [N-]=[N+]=NCCCC[C@H](N)C(=O)O; hArg = N=C(N)NCCCC[C@H](N)C(=O)O; R8 = C=CCCCCCC[C@@](C)(N)C(=O)O; Cba = N[C@@H](CC1CCC1)C(=O)O; S5 = C=CCCC[C@](C)(N)C(=O)O; βAla = NCCC(=O)O; Sar = CNCC(=O)O
What was measured:
[1] = in vitro
Outline: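 Azido-peptide permeability was read as loss of NanoBRET signal (donor 450 nm, acceptor 610 nm) after adding NanoBret618-azide at 10 μM final.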

[2] = physchem
[3] = tested on: HCT116 cells; test: Lactate dehydrogenase (LDH) release assay; format: cell-based
Outline: (§1)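 A p53 β-lactamase reporter HCT116 line, 8000 cells per well, is exposed to test compounds at 0.5% final DMSO and scored for LDH leakage.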

[4] = Lactate dehydrogenase (LDH) release assay; format: cell-based
Outline: as §1

[5] = Experimental LogD (partition coefficient); details: for logD: not stated, Partition Coeff LogD
[6] = Solubility assay (kinetic solubility, PBS pH 7); format: physicochemical; details: pH 7, PBS; for solubility kinetic: pH 7, aqueous buffer, kinetic from dmso stock, read-out: Solubility
Outline: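 Std: 10 mM stock → 100 µM in ACN/MeOH/DMSO (10:80:10). Sol. [µM] = (sample peak area / std peak area) × std conc.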

[7] = Nanoclick permeability assay EC50

## CC(=O)N[C@@H](CCCCN=[N+]=[N-])C(=O)NCCC(=O)N[C@@H](CC(C)C)C(=O)N[C@H](C(=O)N[C@@H](Cc1ccccc1)C(=O)N[C@]1(C)CCCCCCC=CCCC[C@@](C)(C(=O)N[C@@H](CO)C(=O)N[C@@H](C)C(=O)N[C@@H](C)C(N)=O)NC(=O)[C@H](CC2CCC2)NC(=O)[C@H](CCC(N)=O)NC(=O)[C@H](C)NC(=O)[C@H](Cc2c[nH]c3cc(F)ccc23)NC(=O)[C@H](Cc2ccc(O)cc2)NC(=O)[C@H](CCC(=O)O)NC1=O)[C@@H](C)O [MP-004]
[1]; [7]
  cell entry EC50: 7.44 µM
[2]
  EPSA: 201 A^2
[3]
  LDH: Cytotoxicity assay: % Effect: 10.1%
[4]; LDH: Cytotoxicity assay: EC50
  EC50: 23.9 µM
[5]
  logD: 2.9
[6]
  solubility kinetic: 110 µM (≈ 219 µg/mL)

## CC(=O)N[C@@H](CCCCN=[N+]=[N-])C(=O)NCCC(=O)N[C@@H](CC(C)C)C(=O)N[C@H](C(=O)N[C@@H](Cc1ccccc1)C(=O)N[C@]1(C)CCCCCCC=CCCC[C@@](C)(C(=O)N[C@@H](CO)C(=O)N[C@@H](C)C(=O)N[C@@H](C)C(N)=O)NC(=O)[C@H](CC2CCC2)NC(=O)[C@H](CCC(N)=O)NC(=O)[C@H](C)NC(=O)[C@H](Cc2c[nH]c3ccccc23)NC(=O)[C@H](Cc2ccccc2)NC(=O)[C@H](CCC(=O)O)NC1=O)[C@@H](C)O [MP-028] (Ac-[Lys(N3)][βAla]LTF[R8]EFWAQ[Cba][S5]SAA-NH2; staple 6-13)
[1]; [7]
  cell entry EC50: 0.0464 µM
[2]
  EPSA: 197 A^2
[3]
  LDH: Cytotoxicity assay: % Effect: 33.41%
[4]; LDH: Cytotoxicity assay: EC50
  EC50: 8.43 µM
[5]
  logD: 3.2
[6]
  solubility kinetic: 6 µM (≈ 11.7 µg/mL)

## CC(=O)N[C@@H](CCCCN=[N+]=[N-])C(=O)NCCC(=O)N[C@@H](CC(C)C)C(=O)N[C@H](C(=O)N[C@@H](Cc1ccccc1)C(=O)N[C@]1(C)CCCCCCC=CCCC[C@@](C)(C(=O)N[C@@H](CO)C(=O)N[C@@H](C)C(=O)N[C@@H](C)C(N)=O)NC(=O)[C@H](CC2CCC2)NC(=O)[C@H](CCC(N)=O)NC(=O)[C@H](C)NC(=O)[C@H](Cc2cccc(C(F)(F)F)c2)NC(=O)[C@H](Cc2ccc(O)cc2)NC(=O)[C@H](CCC(=O)O)NC1=O)[C@@H](C)O [MP-030] (Ac-[Lys(N3)][βAla]LTF[R8]EY[Phe(3-CF3)]AQ[Cba][S5]SAA-NH2; staple 6-13)
[1]; [7]
  cell entry EC50: 0.408 µM
[2]
  EPSA: 192 A^2
[3]
  LDH: Cytotoxicity assay: % Effect: 8.06%
[4]; LDH: Cytotoxicity assay: EC50
  EC50: > 50.6 µM
[5]
  Partition Coeff LogD: Poorly Behaved
[6]
  Solubility: Poorly Behaved

## CC(=O)N[C@@H](CCCCN=[N+]=[N-])C(=O)NCCC(=O)N[C@@H](CC(C)C)C(=O)N[C@H](C(=O)N[C@@H](Cc1ccccc1)C(=O)N[C@]1(C)CCCCCCC=CCCC[C@@](C)(C(=O)N[C@@H](CO)C(=O)N[C@@H](C)C(=O)N[C@@H](C)C(N)=O)NC(=O)[C@H](CC2CCC2)NC(=O)[C@H](CCC(N)=O)NC(=O)[C@H](C)NC(=O)[C@H](Cc2c[nH]c3ccccc23)NC(=O)[C@@H](CCC(=O)O)NC(=O)[C@H](C)NC1=O)[C@@H](C)O [MP-036] (Ac-[Lys(N3)][βAla]LTF[R8]A[dE]WAQ[Cba][S5]SAA-NH2; staple 6-13)
[1]; [7]
  cell entry EC50: 0.053 µM
[2]
  EPSA: 188 A^2
[3]
  LDH: Cytotoxicity assay: % Effect: 2.628%
[4]; LDH: Cytotoxicity assay: EC50
  EC50: > 50.6 µM
[5]
  Partition Coeff LogD: Poorly Behaved
[6]
  Solubility: Poorly Behaved

## CC(C)C[C@H](NC(=O)CCNC(=O)[C@@H](N)CCCCN=[N+]=[N-])C(=O)N[C@H](C(=O)N[C@@H](Cc1ccccc1)C(=O)N[C@]1(C)CCCCCCC=CCCC[C@@](C)(C(N)=O)NC(=O)[C@H](CC(C)C)NC(=O)[C@H](CC(C)C)NC(=O)[C@H](C)NC(=O)[C@H](Cc2c[nH]c3ccccc23)NC(=O)[C@H](Cc2ccc(O)cc2)NC(=O)[C@H](CCC(=O)O)NC1=O)[C@@H](C)O [MP-0176] (H-[Lys(N3)][βAla]LTF[R8]EYWALL[S5]-NH2; staple 6-13)
[1]; [7]
  cell entry EC50: 0.217 µM
[2]
  EPSA: 212 A^2
[3]
  LDH: Cytotoxicity assay: % Effect: 6.97%
[4]; LDH: Cytotoxicity assay: EC50
  EC50: > 50.6 µM
[5]
  logD: 2.85
[6]
  Solubility: Poorly Behaved

## CC(C)C[C@@H]1NC(=O)[C@H](C)NC(=O)[C@H](Cc2c[nH]c3ccccc23)NC(=O)[C@H](Cc2ccc(O)cc2)NC(=O)[C@H](CCC(=O)O)NC(=O)[C@](C)(NC(=O)[C@H](Cc2ccccc2)NC(=O)[C@H](CO)NC(=O)[C@@H](NC(=O)CCNC(=O)[C@@H](N)CCCCN=[N+]=[N-])[C@@H](C)O)CCCCCCC=CCCC[C@@](C)(C(N)=O)NC(=O)[C@H](CC(C)C)NC1=O [MP-0177]
[1]; [7]
  cell entry EC50: 0.13 µM
[2]
  EPSA: 218 A^2
[3]
  LDH: Cytotoxicity assay: % Effect: -0.29%
[4]; LDH: Cytotoxicity assay: EC50
  EC50: > 50.6 µM
[5]
  logD: 2.7
[6]
  Solubility: Poorly Behaved

## CC(C)C[C@@H]1NC(=O)[C@H](C)NC(=O)[C@H](Cc2c[nH]c3ccccc23)NC(=O)[C@H](Cc2ccc(O)cc2)NC(=O)[C@H](CCC(=O)O)NC(=O)[C@](C)(NC(=O)[C@H](Cc2ccccc2)NC(=O)[C@H](CO)NC(=O)[C@@H](NC(=O)[C@H](CO)NC(=O)[C@@H](N)CCCCN=[N+]=[N-])[C@@H](C)O)CCCCCCC=CCCC[C@@](C)(C(N)=O)NC(=O)[C@H](CC(C)C)NC1=O [MP-0178]
[1]; [7]
  cell entry EC50: 1.31 µM
[2]
  EPSA: 235 A^2
[3]
  LDH: Cytotoxicity assay: % Effect: 0.79%
[4]; LDH: Cytotoxicity assay: EC50
  EC50: > 50.6 µM
[5]
  logD: 2.59
[6]
  Solubility: Poorly Behaved

## CC(C)C[C@H](NC(=O)CCNC(=O)[C@@H](N)CCCCN=[N+]=[N-])C(=O)N[C@H](C(=O)N[C@@H](Cc1ccccc1)C(=O)N[C@]1(C)CCCCCCC=CCCC[C@@](C)(C(N)=O)NC(=O)[C@H](CC2CCC2)NC(=O)[C@H](CCC(N)=O)NC(=O)[C@H](C)NC(=O)[C@H](Cc2c[nH]c3ccccc23)NC(=O)[C@H](Cc2ccc(O)cc2)NC(=O)[C@H](CCC(=O)O)NC1=O)[C@@H](C)O [MP-327] (H-[Lys(N3)][βAla]LTF[R8]EYWAQ[Cba][S5]-NH2; staple 6-13)
[1]; [7]
  cell entry EC50: > 10 µM
[2]
  EPSA: 228 A^2
[3]
  LDH: Cytotoxicity assay: % Effect: 39.84%
[4]; LDH: Cytotoxicity assay: EC50
  EC50: > 50.6 µM
[5]
  logD: 2.83

## CC(=O)N[C@@H](CCCCN=[N+]=[N-])C(=O)NCCC(=O)N[C@@H](CC(C)C)C(=O)N[C@H](C(=O)N[C@@H](Cc1ccccc1)C(=O)N[C@]1(C)CCCCCCC=CCCC[C@@](C)(C(=O)N[C@@H](CO)C(=O)N[C@@H](C)C(=O)N[C@@H](C)C(N)=O)NC(=O)[C@H](CC2CCC2)NC(=O)[C@H](CCC(N)=O)NC(=O)[C@H](C)NC(=O)[C@H](C)NC(=O)[C@H](Cc2ccc(O)cc2)NC(=O)[C@H](CCC(=O)O)NC1=O)[C@@H](C)O [MP-893, AZIDE-ATSP-7041(W7A)]
[1]
  cell entry EC50: 1.23 µM
[2]
  EPSA: 192 A^2
[4]; 0% FBS 4Hr, read-out: LDH: Cytotoxicity assay: EC50
  EC50: 15 µM
[4]; 4 hours, 0% serum, read-out: LDH Cytotoxicity assay EC50
  EC50: 15 µM
[5]
  logD: 2.88
[6]
  solubility kinetic: 51 µM (≈ 94.6 µg/mL)

## CC(=O)N(C)CC(=O)N[C@@H](CCCCN=[N+]=[N-])C(=O)NCCC(=O)N[C@@H](C)C(=O)N[C@H](C(=O)N[C@@H](Cc1ccccc1)C(=O)N[C@]1(C)CCCCCCC=CCCC[C@@](C)(C(=O)N[C@@H](C)C(=O)N[C@@H](C)C(=O)N[C@@H](C)C(N)=O)NC(=O)[C@H](CC2CCC2)NC(=O)[C@H](C)NC(=O)[C@H](C)NC(=O)[C@H](Cc2c[nH]c3ccccc23)NC(=O)[C@H](Cc2ccc(O)cc2)NC(=O)[C@H](C)NC1=O)[C@@H](C)O [MP-895] (Ac-[Sar][Lys(N3)][βAla]ATF[R8]AYWAA[Cba][S5]AAA-NH2; staple 7-14)
[1]; [7]
  cell entry EC50: 0.197 µM
[2]
  EPSA: 184 A^2
[4]; LDH: Cytotoxicity assay: EC50
  EC50: > 50.6 µM
[5]
  logD: 3.46
[6]
  solubility kinetic: 2 µM (≈ 3.74 µg/mL)

## CC(=O)N[C@@H](CCCCN=[N+]=[N-])C(=O)NCCC(=O)N[C@@H](CC(C)C)C(=O)N[C@@H](CCCCNC(=N)N)C(=O)N[C@@H](Cc1ccccc1)C(=O)N[C@]1(C)CCCCCCC=CCCC[C@@](C)(C(=O)N[C@@H](CO)C(=O)N[C@@H](C)C(=O)N[C@@H](C)C(N)=O)NC(=O)[C@H](CC2CCC2)NC(=O)[C@H](CCC(N)=O)NC(=O)[C@H](C)NC(=O)[C@H](Cc2c[nH]c3ccccc23)NC(=O)[C@H](Cc2ccc(O)cc2)NC(=O)[C@H](CCC(=O)O)NC1=O [MP-6897] (Ac-[Lys(N3)][βAla]L[hArg]F[R8]EYWAQ[Cba][S5]SAA-NH2; staple 6-13)
[1]; [7]
  cell entry EC50: 1.51 µM
[2]
  EPSA: 210 A^2
[4]; LDH: Cytotoxicity assay: EC50
  EC50: > 50.6 µM
[5]
  logD: 2.94
[6]
  solubility kinetic: 9 µM (≈ 18.4 µg/mL)

## CC(=O)N[C@@H](CCCCN=[N+]=[N-])C(=O)NCCC(=O)N[C@H](C)C(=O)N[C@H](C(=O)N[C@@H](Cc1ccccc1)C(=O)N[C@]1(C)CCCCCCC=CCCC[C@@](C)(C(=O)N[C@@H](CO)C(=O)N[C@@H](C)C(=O)N[C@@H](C)C(N)=O)NC(=O)[C@H](CC2CCC2)NC(=O)[C@H](CCC(N)=O)NC(=O)[C@H](C)NC(=O)[C@H](Cc2c[nH]c3ccccc23)NC(=O)[C@H](Cc2ccc(O)cc2)NC(=O)[C@H](CCC(=O)O)NC1=O)[C@@H](C)O [MP-7470]
[1]; [7]
  cell entry EC50: > 10 µM
[2]
  EPSA: 228 A^2
[4]; LDH: Cytotoxicity assay: EC50
  EC50: > 50 µM
[5]
  logD: 2.72
[6]
  solubility kinetic: 90 µM (≈ 174 µg/mL)
